Test results from the METLIN SMRT retention time set (Domingo-Almenara et al. 2019).

Assay: gradient 5% acetonitrile 3 min, to 50% in 2 min, to 85% in 15 min, held 3 min, 100 µL/min
Conditions: column: Zorbax Extend-C18 2.1 x 50 mm; eluents: water / acetonitrile, 0.1% formic acid
Procedure, shortened: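 Using water and acetonitrile that each contained 0.1% formic acid, mixtures of ~100 pure standards were separated at 100 μL/min on a Zorbax Extend-C18 column (2.1 × 50 mm, 1.8 μm). The HPLC fed a quadrupole time-of-flight mass spectrometer working in positive and negative ionization mode, with dead and dwell volumes of 40 μL and 900 μL. Data were acquired over 3 months. Retention time was read from computationally picked adduct peaks after manual inspection of each.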

RP-LC retention time [s] | SMILES
1300 | CCc1noc(NC(C)=O)c1-c1ccc(C)c(S(=O)(=O)Nc2ccc(OC)c(Cl)c2)c1
563 | O=C(c1cnn(-c2ccc([N+](=O)[O-])cc2)c1C1CCNCC1)N1CCN(c2ccccn2)CC1
742 | CN1CCCc2cc(C(CNC(=O)C(=O)Nc3ccc4c(c3)OCCO4)N3CCCCC3)ccc21 (centres undefined)
736 | Cc1cc(NC(=O)c2cccc(NS(=O)(=O)c3ccc(F)cc3)c2)no1
1090 | Cc1nn(CC(=O)N2CCCCCC2)c(=O)c2c(-n3cccc3)n(-c3ccc(Cl)cc3)nc12
854 | Cc1cc(C)cc(N2CCC(NC(=O)c3ccc(C#N)cc3)C2=O)c1 (centres undefined)
601 | CC(C(=O)NCCN1CCCCC1)n1c(=O)c(C(F)(F)F)nc2ccccc21 (centres undefined)
634 | Fc1cccc(-c2nc(-c3ccc4c(c3)ncn4CCN3CCCC3)no2)c1
814 | COCCN1C(=O)CCc2cc(NC(=O)CC3CCCCC3)ccc21
812 | O=S(=O)(NC1CCCC1)c1ccc(-c2nnc(C3CC3)o2)o1
831 | COc1ccc(S(=O)(=O)N2CCC(n3c(-c4ccoc4)nc4cccnc43)C2)cc1 (centres undefined)
897 | Cc1cc(NC(=O)C2CCc3nc(N4CCOCC4)ncc3C2)ccc1Cl (centres undefined)
742 | O=C(Nc1ccccc1)N1CCC(n2cnc3cc(F)ccc3c2=O)CC1
914 | O=C(NCCc1ccccc1)N1CCC(c2noc(-c3ccccc3)n2)C1 (centres undefined)
724 | Cc1ccccc1CC(=O)Nc1cc(-c2nnc(C3CC3)o2)sc1C
642 | O=C(NCCN1CCOCC1)C1CCN(S(=O)(=O)c2ccc(-c3noc(C4CC4)n3)cc2)CC1
676 | COCc1noc([C@@H]2CN(C(=O)c3ccc(Cl)s3)C[C@H]2C(N)=O)n1
750 | O=C(NC1CC1)C1c2ccccc2CC(=O)N1Cc1ccccc1 (centres undefined)
552 | c1ccc(OCc2cn(CCC3CCCCN3)nn2)cc1 (centres undefined)
1350 | Cc1cc(C)c(S(=O)(=O)N2CCCC2c2nc(-c3cccc(Cl)c3)no2)c(C)c1 (centres undefined)
624 | Cc1nnc(NC(=O)C2CCN(C(=O)c3ccccc3F)CC2)s1
765 | O=C(Nc1cnc(N2CCCC2)nc1)c1cc(F)cc(F)c1
850 | O=C(NC1CC1)c1ccc(OCC2CCN(C(=O)c3ccc(Cl)cc3)CC2)cc1
938 | Cc1nc(-c2csc(S(=O)(=O)N3CCC(C(=O)NCCc4ccc(Cl)cc4)CC3)c2)no1
899 | CCCNC(=O)N(C1CCOCC1)C1CCN(S(=O)(=O)c2ccccc2CC)CC1
739 | COC(=O)c1ccc(NC(=O)N2CCCC2c2cc(C)on2)cc1 (centres undefined)

RP-LC retention time [s] | SMILES
674 | CC(C)OCCCNC(=O)C1CCN(S(=O)(=O)c2ccc3c(c2)CCCC(=O)N3)CC1
767 | O=C(Nc1c(F)cccc1F)N1CCC(c2ccccc2)C1 (centres undefined)
854 | O=C(c1cccc2c1CCN2C(=O)c1ccc(F)cc1)N1CCCCC1
726 | CSc1ccc(NC(=O)N2CCC(c3nc(C(=O)N4CCOCC4)c(C)o3)CC2)cc1
734 | CC1CCC(C(=O)Nc2ccc(-c3nnc4n3CCCC4)cc2)CC1 (centres undefined)
712 | O=C(Nc1ccc2c(c1)CN(S(=O)(=O)c1cccnc1)CCO2)C1CC1
1010 | CCc1nc(-c2csc(S(=O)(=O)N3CCC(C(=O)Nc4ccccc4CC)CC3)c2)no1
579 | CN(C)c1ccc(CNC(=O)C2CCN(c3cc(N4CCSCC4)ncn3)CC2)cc1
1020 | CC1Cc2ccccc2N1S(=O)(=O)CCCOc1ccc2c(c1)OCO2 (centres undefined)
716 | COCCN1C(=O)CCc2cc(NS(=O)(=O)c3cccc4nsnc34)ccc21
555 | Cc1cc(C(=O)N2CC(c3nc4ccccc4[nH]3)C2)no1
717 | CS(=O)(=O)N1CCc2ccc(C(=O)N3CCCCC3)cc21
752 | O=C(NCCS(=O)(=O)N1CCc2ccccc2C1)c1ccc([N+](=O)[O-])o1
723 | CC1=C(C(=O)N2CCOCC2)C(c2ccc(Br)cc2)C2=C(CC(C)(C)CC2=O)N1 (centres undefined)
743 | O=C(Nc1ccccc1)C1CC(=O)N(c2ccc3c(c2)CCN3C(=O)C2CC2)C1 (centres undefined)
1010 | Cc1ccc(C)c(Sc2ccc(N3CCC(C(=O)NCCC4=CCCCC4)CC3)nn2)c1
694 | O=S(=O)(Nc1cccn2ncnc12)c1ccc(F)cc1
872 | CCC1(C(=O)Nc2ccc(C(C)C)cc2)CCCCC(=O)N1 (centres undefined)
931 | COc1ccc(NC(=O)c2cc(C(C)C)n(C3CCS(=O)(=O)C3)n2)cc1Cl (centres undefined)
1280 | CCC(C(=O)N1CCC(C)CC1)n1cnc2onc(-c3ccc(Cl)cc3)c2c1=O (centres undefined)
819 | Cn1cccc1C(=O)Nc1cnn(-c2ncc(N3CCCCC3)cn2)c1
850 | Cc1nnc(N2CCCC(C(=O)N3CCc4ccccc43)C2)c2nn(-c3ccc(Cl)cc3)c(C)c12 (centres undefined)
757 | O=C(Cn1c(=O)c(S(=O)(=O)c2ccccc2)cc2ccccc21)N1CCCC1
1100 | CNC(=O)c1c(NC(=O)COc2ccc(Cl)cc2)sc2c1CCC2
817 | Cc1cccc(-c2nnc(CC(=O)NC3CCCCC3)o2)c1

The next lines start with the compound.

SMILES | RP-LC retention time [s]
CN1C(=O)CCS(=O)(=O)C1c1ccc(Cl)cc1 (centres undefined) | 759
Cc1ccc(-c2nc3ccccn3c2Nc2ccccc2C)cc1 | 731
COc1ccc(-c2ccc(=O)n(CCCC(=O)Nc3ccccc3C(N)=O)n2)cc1OC | 619
COc1cc(-c2nc3cc(C)ccn3c2Nc2ccc(C)cc2)ccc1O | 686
COc1ncccc1CNC(=O)c1sccc1C | 746
O=C(Cn1nc2c3cc(-c4ccc(F)cc4)nn3ccn2c1=O)Nc1ccc(Br)cc1 | 923
C/C(=N\O)C1CC(CC(=O)O)C1(C)C (centres undefined) | 688
CCc1nc2c(=O)n(CC(=O)N3CCCCCC3)nc(C)c2s1 | 706
Cc1nnc2ccc(S(=O)(=O)N(Cc3cccc(F)c3)c3ccccc3)cn12 | 866
O=C(Nc1ccc2c(c1)N(C(=O)c1cccs1)CCC2)c1ccccc1Br | 850
O=c1c2nc(-c3ccc(F)cc3F)cn2ccn1-c1cccc(Cl)c1 | 949
O=C(Cn1cccc(-c2nc(-c3ccc(Br)cc3)no2)c1=O)NCc1ccc(F)cc1 | 952
O=C(O)c1cc(-c2ccc(F)cc2)nc2ccccc12 | 884
CCCn1cc(CCNS(=O)(=O)c2ccccc2C(F)(F)F)c2cccnc21 | 904
O=C(CC1CCCC1)N1[C@H]2CC[C@@H]1c1cnc(-c3ccc(F)cc3)nc1C2 | 1060
CC(C)NC(=O)c1ccc(Nc2c(-c3ccccc3)nc3cnccn23)cc1 | 702
Cc1ccccc1NC(=O)c1cc(C(C)C)n2nccc2n1 | 1090
COc1ccc(NC(=O)N2C[C@@H](F)C[C@H]2C(=O)N2CCc3ccccc3C2)c(OC)c1 | 790
COc1ccc(Cl)cc1NC(=O)c1cnc(N2CCN(c3ncccn3)CC2)c2ccccc12 | 1090

SMILES | RP-LC retention time [s]
CN(CCCNC(=O)CN1C(=O)CSc2cccn2-c2ccccc21)Cc1ccccc1 | 677
O=C1c2ccccc2C(=O)c2c(O)c(NCCNCCO)cc(O)c21 | 653
COc1ccc(Cl)cc1N1CC(c2nc(-c3ccccc3F)no2)CC1=O (centres undefined) | 943
CCOc1ccc(NC(=O)Cc2csc3nc(-c4ccc(C)c(C)c4)cn23)cc1 | 903
COc1ccc(-c2nc(C3CC(=O)N(c4ccccc4)C3)no2)cc1 (centres undefined) | 971
Cc1ccc(CNC(=O)C2(C)CCCN(C(=O)Nc3ccc(F)cc3)C2)cc1 (centres undefined) | 899
CCCN1C(=O)COc2ccc(-c3csc(NC(=O)C(C)C)n3)cc21 | 918
CCOC(=O)c1c(C)[nH]c(C(=O)N2CCCC(C(=O)NCCN3CCN(CC)CC3)C2)c1C (centres undefined) | 567
O=C(Nc1ccc(CCc2nc3ccccc3n2-c2ccccc2)cc1)c1cnccn1 | 694
CC(=O)N1CCc2c([nH]c3ccccc23)C12C(=O)Nc1ccccc12 (centres undefined) | 721
COc1cccc(CNC(=O)N2CCC3(CC2)NC(=O)c2ccccc2O3)c1 | 739
CC(=O)N1CC[C@]2(CO)CN(C(=O)c3ccsc3)C[C@@H]2C1 | 565
CCSc1nnc(NC(=O)CSc2ncnc3ccccc23)s1 | 733
Cc1ccc(CNC(=O)c2c(C)sc3ccn(Cc4ccc(F)cc4)c(=O)c23)o1 | 980
O=C(Nc1cccc(-c2cn3cccnc3n2)c1)c1ccc(Cl)cc1 | 739
CCN1C(=O)c2cccnc2Sc2cc(NC(=O)CCc3ccccc3)ccc21 | 950
O=c1c2nc(-c3ccc4c(c3)OCO4)cn2ccn1-c1ccc(Cl)cc1 | 834
O=C(CCc1csc(NC(=O)c2ccccc2)n1)Nc1nc2ccc(Cl)cc2s1 | 970
COc1ccc(OC)c(-c2cc(C(=O)Nc3ccc4c(c3)CCC(=O)N4)[nH]n2)c1 | 681
